Test results published in PMC7794397, “Curbing gastrointestinal infections by defensin fragment modifications without harming commensal microbiota” (Communications Biology, 2021).
Values after ≈ are worked out from the molar mass of the structure shown. Values joined by “and” are separate entries in the source; they are usually repeats but may differ in a detail not shown here. Identical values can stand only once. Residues, ends and D or L forms follow the SMILES beside them. *: point of attachment. Palmitoyl = CCCCCCCCCCCCCCCC(=O)*; AEEA = NCCOCCOCC(=O)O

Tests used:
[1] = test system: A. baumannii DSM30007 4-MRGN
Procedure: (§1) Bactericidal activity was assessed by broth microdilution assay. Log-phase bacteria were collected by centrifugation (2500 rpm, 10 min, 4 °C), washed twice with 10 mM sodium phosphate buffer containing 1% (w/v) TSB and the optical density at 600 nm was adjusted to 0.1. Approximately 5 × 10^5 CFU/ml bacteria were incubated with serial peptide concentrations (1.17–150 µM) in a final volume of 100 µl in 10 mM sodium phosphate buffer containing 1% (w/v) TSB for 2 h at 37 °C. After incubation, 100 µl of 6% TSB (w/v) were added and absorbance was measured at 600 nm (Tecan, Switzerland) and monitored for 18 h. Afterward, 100 µl per well were plated on LB agar to determine the numbers of viable bacteria microbiologically. Bactericidal activity is expressed as the LC99.9, the lowest concentration that killed ≥99.9 % of bacteria.

E. coli 6940 3-MRGN = details: 2 h
Procedure: as §1

E. faecium DSM2918 VRE = details: DSM2918, 2 h
Procedure: as §1

[2] = test system: P. aeruginosa DSM1117 4-MRGN; details: DSM1117, 2 h
Procedure: as §1

S. aureus DSM20213 MRSA = details: DSM20213, 2 h
Procedure: as §1

P. aeruginosa PAO1 [3] = experiment: Treatment of established biofilms; format: cell-based; set-up: viable bacteria in biofilm: unit not given here; details: for viable bacteria in biofilm: 24 h old biofilm, 1 h treatment
Procedure: (§2) Then, planktonic bacteria were removed by two wash steps with PBS. […] Afterward, adherent bacteria in each well were resuspended, and the number of viable bacteria was determined microbiologically. […] The biofilm degradation assay was performed in agreement with the original report describing this method first.

S. aureus ATCC25923 [4] = experiment: Treatment of established biofilms; format: cell-based; details: for viable bacteria in biofilm: 24 h old biofilm, 1 h treatment
Procedure: as §2

S. aureus NCTC8325 [5] = experiment: Bacterial pore formation (SYTO9/propidium iodide); format: cell-based; details: 37.5 µM Pam-3 (4x MIC), 10 min; Syto9 and propidium iodide
Procedure: Pore formation was monitored using the Live/Dead BacLight bacterial viability kit (Molecular Probes)[60]. […] Samples were taken after 10 min of peptide treatment, then 0.2 µl of a 1:1 mixture of SYTO9 and propidium iodide (PI) was added and further incubated for 15 min at RT in the dark. […] Images were acquired with an Orca Flash 4.0 V2 camera (Hamamatsu), C Plan-Apo 63x/1.4 Oil DIC and alpha Plan-Apochromat 100x/1.46 Oil Ph3 objectives (Zeiss) and processed using the Zen software package (Zeiss).

P. aeruginosa PAO1 [6] = format: cell-based
Procedure: (§3) After incubation at 37 °C and 150 rpm for 1–120 min, a sample of 50 µl was taken from the suspension and added to 50 µl of a 0.05% (v/v) sodium polyanethol sulfonate (Sigma-Aldrich) solution, which neutralizes remaining peptide activity, and plated on LB agar to determine the number of viable bacteria.

S. aureus ATCC25923 [7] = format: cell-based
Procedure: as §3

[8] = test system: C. rodentium strain ICC180; experiment: Citrobacter rodentium gastrointestinal infection in mice; format: in vivo, C57BL/6N mice
Procedure: Bioluminescence expressing C. rodentium strain ICC180 was used for all infection experiments. C. rodentium inocula were prepared by culturing bacteria overnight at 37 °C in LB broth with 50 µg/ml kanamycin. Subsequently, the culture was diluted 1:100 in fresh medium, and sub-cultured for 4 h at 37 °C in LB broth. Bacteria were washed twice in phosphate-buffered saline (PBS). Mice were orally inoculated with 10^8 CFU of C. rodentium diluted in 200 µl PBS. Weight of the mice was monitored and feces were collected for measurements of the pathogen burden. After 5 days post infection mice received twice 250 µg peptide solved in 100 µl PBS or only PBS orally. The following day, mice were sacrificed to assess bacterial burden in the lumen and tissues of the cecum and the colon.
All mice were euthanized by asphyxiation with CO2 at indicated time points. Intestinal tissues (small intestine, cecum, colon) were removed aseptically. To collect intestinal content, organs were flushed with PBS. Organs were opened longitudinally, cleaned thoroughly with PBS and weighted. Organs and content were homogenized in PBS using a Polytron homogenizer (Kinemtatica). Dilutions of homogenized samples were plated on LB plates containing 50 μg/ml kanamycin to determine CFUs.

S. aureus NCTC8325 [9] = experiment: Transmission and scanning electron microscopy; format: cell-based; details: 37.5 µM Pam-3 (4x MIC), 30 min
Text: As a control, bacteria were exposed to 0.01% acetic acid. Afterward bacteria were fixed in Karnovsky’s reagent.
For transmission electron microscopy (TEM), bacteria were high-pressure frozen (HPF Compact 03, Engineering Office M. Wohlwend GmbH) in capillaries, freeze-substituted (AFS2, Leica Microsystems) with 2% OsO4 and 0.4% uranyl acetate in acetone as substitution medium and embedded in EPON. Ultrathin sections were stained with uranyl acetate and lead citrate and analyzed with a Tecnai Spirit (Thermo Fisher Scientific) operated at 120 kV.
For scanning electron microscopy (SEM), bacteria were washed in PBS and finally fixed with 1% OsO4 on ice for 1 h. Next, samples were prepared on polylysin-coated coverslips, dehydrated in a graduated series to 100% ethanol and critical point dried (Polaron) with CO2. Finally, samples were sputter-coated with a 3 nm thick layer of platinum (Safematic CCu-010) and examined with a Hitachi Regulus 8230 field emission scanning electron microscope (Hitachi) at an accelerating voltage of 5 kV.

[10] = two doses of 250 µg orally 5 days p.i., following day, individual animals, N = 11

CCCCCCCCCCCCCCCC(=O)NCCOCCOCC(=O)N[C@@H](CCCNC(=N)N)C(=O)NCC(=O)N[C@@H](CCCCN)C(=O)N[C@@H](C)C(=O)N[C@@H](CCCCN)C(=O)N[C@@H](CS)C(=O)N[C@@H](CS)C(=O)N[C@@H](CCCCN)C(=O)O [Pam-3] ({Palmitoyl-AEEA}-RGKAKCCK-OH; C-terminus assumed) was tested, and the “growth inhibition of colistin- and tigecycline-resistant isolate (in words)” value [1] was “inhibited the growth”, the LC99.9 (E. coli 6940 3-MRGN) was 9.38 µM and the LC99.9 (E. faecium DSM2918 VRE) was 9.38 (4.87-9.38) μM. The LC99.9 [2] was 9.38 µM, the LC99.9 (S. aureus DSM20213 MRSA) was 9.38 (4.87-9.38) μM and the “elimination of bacteria in biofilms (in words)” value (P. aeruginosa PAO1 [3]; 300 µM, within 1 h, Kruskal–Wallis p = 0.0074) was “eliminated”. The “viable bacteria in biofilm” value (P. aeruginosa PAO1 [3]; 9.375 µM Pam-3, experiment 1) was 1541667, the “viable bacteria in biofilm” value (P. aeruginosa PAO1 [3]; 9.375 µM Pam-3, experiment 2) was 3730000 and the “viable bacteria in biofilm” value (P. aeruginosa PAO1 [3]; 9.375 µM Pam-3, experiment 3) was 2210000. The “viable bacteria in biofilm” value (P. aeruginosa PAO1 [3]; 18.75 µM Pam-3, experiment 1) was 800000, the “viable bacteria in biofilm” value (P. aeruginosa PAO1 [3]; 18.75 µM Pam-3, experiment 2) was 125000 and the “viable bacteria in biofilm” value (P. aeruginosa PAO1 [3]; 18.75 µM Pam-3, experiment 3) was 1510000. For the same compound, the “viable bacteria in biofilm” value (P. aeruginosa PAO1 [3]; 37.5 µM Pam-3, experiment 1) was 70000, the “viable bacteria in biofilm” value (P. aeruginosa PAO1 [3]; 37.5 µM Pam-3, experiment 2) was 21111 and the “viable bacteria in biofilm” value (P. aeruginosa PAO1 [3]; 37.5 µM Pam-3, experiment 3) was 362889. For the same compound, the “viable bacteria in biofilm” value (P. aeruginosa PAO1 [3]; 75 µM Pam-3, experiment 1) was 1100, the “viable bacteria in biofilm” value (P. aeruginosa PAO1 [3]; 75 µM Pam-3, experiment 2) was 67067 and the “viable bacteria in biofilm” value (P. aeruginosa PAO1 [3]; 75 µM Pam-3, experiment 3) was 5525. The “viable bacteria in biofilm” value (P. aeruginosa PAO1 [3]; 150 µM Pam-3, experiment 1) was 333, the “viable bacteria in biofilm” value (P. aeruginosa PAO1 [3]; 150 µM Pam-3, experiment 2) was 433 and the “viable bacteria in biofilm” value (P. aeruginosa PAO1 [3]; 150 µM Pam-3, experiment 3) was 167. The “viable bacteria in biofilm” value (P. aeruginosa PAO1 [3]; 300 µM Pam-3, 1 = no growth, experiment 1) was 1, the “viable bacteria in biofilm” value (P. aeruginosa PAO1 [3]; 300 µM Pam-3, 1 = no growth, experiment 2) was 1 and the “viable bacteria in biofilm” value (P. aeruginosa PAO1 [3]; 300 µM Pam-3, 1 = no growth, experiment 3) was 1. The “eradication of bacteria in biofilms” value (S. aureus ATCC25923 [4]; 300 µM, within 1 h, Kruskal–Wallis p = 0.0026) was ~ 99.99%, the “viable bacteria in biofilm” value (S. aureus ATCC25923 [4]; 9.375 µM Pam-3, experiment 1) was 43066667 CFU/ml and the “viable bacteria in biofilm” value (S. aureus ATCC25923 [4]; 9.375 µM Pam-3, experiment 2) was 6050000 CFU/ml. The “viable bacteria in biofilm” value (S. aureus ATCC25923 [4]; 9.375 µM Pam-3, experiment 3) was 15666667 CFU/ml, the “viable bacteria in biofilm” value (S. aureus ATCC25923 [4]; 18.75 µM Pam-3, experiment 1) was 32200000 CFU/ml and the “viable bacteria in biofilm” value (S. aureus ATCC25923 [4]; 18.75 µM Pam-3, experiment 2) was 3550000 CFU/ml. For the same compound, the “viable bacteria in biofilm” value (S. aureus ATCC25923 [4]; 18.75 µM Pam-3, experiment 3) was 17250000 CFU/ml, the “viable bacteria in biofilm” value (S. aureus ATCC25923 [4]; 37.5 µM Pam-3, experiment 1) was 27300000 CFU/ml and the “viable bacteria in biofilm” value (S. aureus ATCC25923 [4]; 37.5 µM Pam-3, experiment 2) was 2333333 CFU/ml. The “viable bacteria in biofilm” value (S. aureus ATCC25923 [4]; 37.5 µM Pam-3, experiment 3) was 5966667 CFU/ml, the “viable bacteria in biofilm” value (S. aureus ATCC25923 [4]; 75 µM Pam-3, experiment 1) was 1496667 CFU/ml and the “viable bacteria in biofilm” value (S. aureus ATCC25923 [4]; 75 µM Pam-3, experiment 2) was 239889 CFU/ml. The “viable bacteria in biofilm” value (S. aureus ATCC25923 [4]; 75 µM Pam-3, experiment 3) was 3451667 CFU/ml, the “viable bacteria in biofilm” value (S. aureus ATCC25923 [4]; 150 µM Pam-3, experiment 1) was 150333 CFU/ml and the “viable bacteria in biofilm” value (S. aureus ATCC25923 [4]; 150 µM Pam-3, experiment 2) was 9167 CFU/ml. The “viable bacteria in biofilm” value (S. aureus ATCC25923 [4]; 150 µM Pam-3, experiment 3) was 24500 CFU/ml, the “viable bacteria in biofilm” value (S. aureus ATCC25923 [4]; 300 µM Pam-3, experiment 1) was 67 CFU/ml and the “viable bacteria in biofilm” value (S. aureus ATCC25923 [4]; 300 µM Pam-3, experiment 2) was 333 CFU/ml. The “viable bacteria in biofilm” value (S. aureus ATCC25923 [4]; 300 µM Pam-3, experiment 3) was 1300 CFU/ml, the “pore formation (in words)” value (S. aureus NCTC8325 [5]) was “strong influx of PI” and the “time to eradication to the level of detection” value (P. aeruginosa PAO1 [6]; 9.38 µM Pam-3) was 2 min. For the same compound, the “time to killing of more than 90% of bacteria” value (P. aeruginosa PAO1 [6]; 9.38 µM Pam-3) was at most 1 min, the MIC (P. aeruginosa PAO1 [6]; PAO1) was 9.38 µM (≈ 12 µg/mL) and the “time to eradication to the level of detection” value (S. aureus ATCC25923 [7]; 9.38 µM Pam-3) was 30 min. For the same compound, the “time to killing of more than 90% of bacteria” value (S. aureus ATCC25923 [7]; 9.38 µM Pam-3) was at most 15 min, the MIC (S. aureus ATCC25923 [7]; ATCC25923) was 9.38 µM (≈ 12 µg/mL) and the “viable Citrobacter in colon content and colon tissue vs PBS (in words)” value ([8]; Mann–Whitney p = 0.0010 and p = 0.0104) was “significantly reduced”. The “bacteria in cecum content and cecum tissue vs PBS (in words)” value ([8]; Mann–Whitney p = 0.0104 and p = 0.0473) was “reduced the number of bacteria”, the “C. rodentium in cecum content” value [8, 10] was 20533880 CFU/g and 455636 CFU/g and 278413400 CFU/g and 15654650 CFU/g and 366007 CFU/g and 16133443 CFU/g and 143723333 CFU/g and 2819342 CFU/g and 262402624 CFU/g and 251094891 CFU/g and 226500566 CFU/g and the “C. rodentium in cecum tissue” value [8, 10] was 490000 CFU/g and 307086614 CFU/g and 556897 CFU/g and 3530864 CFU/g and 21702128 CFU/g and 74039735 CFU/g and 1204147 CFU/g and 780234 CFU/g and 18903800 CFU/g and 586941 CFU/g and 191336 CFU/g. The “C. rodentium in colon content” value [8, 10] was 1762185 CFU/g and 60751515 CFU/g and 1789819 CFU/g and 315018315 CFU/g and 310211946 CFU/g and 1173126615 CFU/g and 2621359 CFU/g and 289220 CFU/g and 25236170 CFU/g and 708075 CFU/g and 1616071 CFU/g, the “C. rodentium in colon tissue” value [8, 10] was 58623.6 CFU/g and 30241621 CFU/g and 100000 CFU/g and 24432209 CFU/g and 42962357 CFU/g and 13239974 CFU/g and 61561.6 CFU/g and 13820.3 CFU/g and 2719752 CFU/g and 44329.9 CFU/g and 628386 CFU/g and the “bacterial morphology, TEM (in words)” value (S. aureus NCTC8325 [9]) was “strong cell envelope damage with disrupted membranes and pores in most of the cells”.
